Source: PubChem BioAssay AID1963437 (Molecular Pharmacology Branch, DTP, NCI, 2024)

Test system: OVCAR-8 complex spheroid, growth inhibition
Assay: Anticancer human tumor OVCAR-8 cell line growth inhibition [Asc];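 also: spheroids exposed to agents for 7 days before readout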;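 as to viability, T/C: percent viability relative to DMSO vehicle wells taken as 100%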
Details: for IC50: curve of first compound; for viability, T/C: stronger effect = lower value
Protocol: Multicellular complex tumor spheroid response to apoptosis pathway targeting inhibitors Alrizomadlin, Pelcitoclax, and Dasminapant in combination with a variety of drugs and investigational agents in selected tumor cell lines
The MDM2 inhibitor alrizomadlin, the Bcl-2/Bcl-xL inhibitor pelcitoclax, and the IAPs inhibitor dasminapant were evaluated both individually and in combination with standard of care and investigational anticancer small molecules within a complex spheroid model of solid tumors. . Complex spheroids include a stromal component modeled by human endothelial cells (HUVEC) and fibroblasts modeled by human mesenchymal stem cells (MSCs). The concentration ranges selected for each drug and investigational agent were based upon clinically achievable concentrations if the clinical Cmax of the agent was known.
Compounds. The drugs and investigational agents: alrizomadlin (APG-115; NSC831270), pelcitoclax (APG-1252; NSC835773), dasminapant (APG-1387;NSC834197), TAK-243 (NSC785004), copanlisib (NSC809693), olaparib (NSC753686), talazoparib (NSC767125), cobimetinib (NSC 768068), eltanexor (KPT-8602, NSC 794443), abemaciclib (NSC 768073), sotorasib (NSC818433), adagrasib (NSC 831453), MRTX-1133 (NSC 836407), Iadademestat (ORY1001, NSC 806812), and RMC-4630 (NSC839698), were obtained from the NCI Developmental Therapeutics Program Chemical Repository. The FDA-approved anticancer drug set is available from the Developmental Therapeutics Program at https://dtp.cancer.gov/organization/dscb/obtaining/available plates.htm. […] The stock solutions were prepared in dimethyl sulfoxide (DMSO, Sigma-Aldrich, St. Louis, MO, cat. D2650) at 800-fold the tested concentration and stored at -70 degrees C prior to their use. All drugs and investigational agents were tested over a range starting from a high concentration at or near the clinical Cmax and decreasing in half-log increments. If the clinical Cmax for an agent had not been determined, the highest concentration tested was 10 microM.
The patient-derived cancer (PDC) cell lines include five colon adenocarcinomas: 186277-243-T-J2-PDC, 616215-338-R-J1-PDC, 439559-082-T-J2-PDC, 463943-066-T-J2-PDC, and 519858-162-T-J1-PDC; three pancreatic carcinomas: 323965-272-R-J2-PDC, 521955-158-R6-J3-PDC, and 521955-158-R2-J5-PDC; two uterine sarcomas: 327498-152-R-J2-PDC and 993429-296-R-J1-PDC; two rhabdomyosarcomas: 755483-174-R-J1-PDC and 772245-204-R-J1-PDC; two soft tissue sarcomas: 126254-015-R-J1-PDC and 494315-158-R-J1-PDC; two malignant fibrous histiocytomas: 317291-083-R-J1-PDC and 596521-263-R-J1-PDC; two breast carcinomas: 171881-019-R-J1-PDC and 885512-296-R-J2-PDC; and one ovarian carcinoma: 6556581-035-R-J-PDC were obtained from the NCI PDMR, (https://pdmr.cancer.gov). The established cell lines HSSY-2 synovial sarcoma (RRID:CVCL 8719), SYO-1 synovial sarcoma (RRID:CVCL_7146), MPNST malignant peripheral neural sheath tumor were obtained from the Sloan Kettering Institute. The following established cell lines were purchased from the American Type Culture Collection (ATCC, Manassas, VA), Sor the received from the NCI repository:, PANC-1 pancreatic carcinoma (CRL-1469, RRID:CVCL_0480), OVCAR-5 ovarian carcinoma (RRID:CVCL_1628), OVCAR-8 ovarian carcinoma (RRID:CVCL_1629), , MCF-7 breast carcinoma (CRL-12584, RRID:CVCL_0031), MDA-MB-231 breast carcinoma (CRL-12532, RRID:CVCL_0062), NCI-H1876 small cell lung carcinoma (CRL-5902, RRID:CVCL_1503), NCI-H510A small cell lung carcinoma (HTB-184, RRID:CVCL_1565), NCI-H1417 (CRL-5869, RRID:CVCL_1469), and NCI-H196 small cell lung carcinoma (CRL-5823, RRID:CVCL_1509). Dr. Peter Houghton (Greehey Children's Cancer Research Institute, University of Texas Health Science Center, San Antonio, TX) provided Rh-18 rhabdomyosarcoma (RRID:CVCL_1659). Pooled donor human umbilical vein endothelial cells (HUVEC, Lonza, cat. CC-2519) and human mesenchymal stem cells (hMSC, Lonza, cat. PT-2501) were purchased from Lonza (Walkersville, MD).
Cell Culture. […]

[1] = second compound 0.00949 µM, first compound 0.00316 µM
[2] = second compound 0.00949 µM, first compound 0.01 µM
[3] = second compound 0.00949 µM, first compound 0.0316 µM
[4] = second compound 0.00949 µM, first compound 0.1 µM
[5] = second compound 0.00949 µM, first compound 0.316 µM
[6] = second compound 0.00949 µM, first compound 1 µM
[7] = second compound 0.03 µM, first compound 0.00316 µM
[8] = second compound 0.03 µM, first compound 0.01 µM
[9] = second compound 0.03 µM, first compound 0.0316 µM
[10] = second compound 0.03 µM, first compound 0.1 µM
[11] = second compound 0.03 µM, first compound 0.316 µM
[12] = second compound 0.03 µM, first compound 1 µM
[13] = second compound 0.0949 µM, first compound 0.00316 µM
[14] = second compound 0.0949 µM, first compound 0.01 µM
[15] = second compound 0.0949 µM, first compound 0.0316 µM
[16] = second compound 0.0949 µM, first compound 0.1 µM
[17] = second compound 0.0949 µM, first compound 0.316 µM
[18] = second compound 0.0949 µM, first compound 1 µM
[19] = second compound 0.3 µM, first compound 0.00316 µM
[20] = second compound 0.3 µM, first compound 0.01 µM
[21] = second compound 0.3 µM, first compound 0.0316 µM
[22] = second compound 0.3 µM, first compound 0.1 µM
[23] = second compound 0.3 µM, first compound 0.316 µM
[24] = second compound 0.3 µM, first compound 1 µM
[25] = second compound 0.949 µM, first compound 0.00316 µM
[26] = second compound 0.949 µM, first compound 0.01 µM
[27] = second compound 0.949 µM, first compound 0.0316 µM
[28] = second compound 0.949 µM, first compound 0.1 µM
[29] = second compound 0.949 µM, first compound 0.316 µM
[30] = second compound 0.949 µM, first compound 1 µM
[31] = second compound 3 µM, first compound 0.00316 µM
[32] = second compound 3 µM, first compound 0.01 µM
[33] = second compound 3 µM, first compound 0.0316 µM
[34] = second compound 3 µM, first compound 0.1 µM
[35] = second compound 3 µM, first compound 0.316 µM
[36] = second compound 3 µM, first compound 1 µM

`CCN1CCN(Cc2ccc(Nc3ncc(F)c(-c4cc(F)c5nc(C)n(C(C)C)c5c4)n3)nc2)CC1` + CCN1C(C(=O)NC23CCC(C(=O)O)(CC2)CC3)C(c2cccc(Cl)c2F)C2(C(=O)Nc3cc(Cl)ccc32)C12CCCCC2 showed an IC50 (second compound 0.00949 µM) of over 1000 nM, an IC50 (second compound 0.03 µM) of over 1000 nM and an IC50 (second compound 0.0949 µM) of over 1000 nM. It also gave an IC50 (second compound 0.3 µM) of over 1000 nM, an IC50 (second compound 0.949 µM) of over 1000 nM and an IC50 (second compound 3 µM) of over 1000 nM. The viability, T/C [1] was 85.2%, the viability, T/C [2] was 89.5% and the viability, T/C [3] was 80.1%. It also gave a viability, T/C [4] of 100%, a viability, T/C [5] of 90.2% and a viability, T/C [6] of 107%. It also gave a viability, T/C [7] of 98.1%, a viability, T/C [8] of 84.4% and a viability, T/C [9] of 102%. For the same molecule, the viability, T/C [10] was 89.4%, the viability, T/C [11] was 97.5% and the viability, T/C [12] was 117%. For the same molecule, the viability, T/C [13] was 79.9%, the viability, T/C [14] was 92.2% and the viability, T/C [15] was 89.8%. The viability, T/C [16] was 98.6%, the viability, T/C [17] was 95.6% and the viability, T/C [18] was 126%. The viability, T/C [19] was 89.7%, the viability, T/C [20] was 82.2% and the viability, T/C [21] was 93.1%. For the same molecule, the viability, T/C [22] was 93.7%, the viability, T/C [23] was 114% and the viability, T/C [24] was 121%. It also gave a viability, T/C [25] of 97.9%, a viability, T/C [26] of 86.6% and a viability, T/C [27] of 87.5%. It also gave a viability, T/C [28] of 111%, a viability, T/C [29] of 90.6% and a viability, T/C [30] of 126%. It also gave a viability, T/C [31] of 98.5%, a viability, T/C [32] of 112% and a viability, T/C [33] of 117%. For the same molecule, the viability, T/C [34] was 118%, the viability, T/C [35] was 123% and the viability, T/C [36] was 119%.

`O=C(c1ccc(F)c(F)c1Nc1ccc(I)cc1F)N1CC(O)([C@@H]2CCCCN2)C1` + CCN1C(C(=O)NC23CCC(C(=O)O)(CC2)CC3)C(c2cccc(Cl)c2F)C2(C(=O)Nc3cc(Cl)ccc32)C12CCCCC2 was tested, and the IC50 (second compound 0.00949 µM) was over 1000 nM, the IC50 (second compound 0.03 µM) was over 1000 nM and the IC50 (second compound 0.0949 µM) was over 1000 nM. For the same molecule, the IC50 (second compound 0.3 µM) was over 1000 nM, the IC50 (second compound 0.949 µM) was over 1000 nM and the IC50 (second compound 3 µM) was over 1000 nM. For the same molecule, the viability, T/C [1] was 102%, the viability, T/C [2] was 102% and the viability, T/C [3] was 119%. It also gave a viability, T/C [4] of 153%, a viability, T/C [5] of 230% and a viability, T/C [6] of 104%. For the same molecule, the viability, T/C [7] was 106%, the viability, T/C [8] was 108% and the viability, T/C [9] was 138%. It also gave a viability, T/C [10] of 161%, a viability, T/C [11] of 241% and a viability, T/C [12] of 101%. The viability, T/C [13] was 101%, the viability, T/C [14] was 97% and the viability, T/C [15] was 122%. It also gave a viability, T/C [16] of 168%, a viability, T/C [17] of 208% and a viability, T/C [18] of 113%. For the same molecule, the viability, T/C [19] was 105%, the viability, T/C [20] was 103% and the viability, T/C [21] was 159%. It also gave a viability, T/C [22] of 173%, a viability, T/C [23] of 238% and a viability, T/C [24] of 137%. It also gave a viability, T/C [25] of 97.2%, a viability, T/C [26] of 102% and a viability, T/C [27] of 163%. The viability, T/C [28] was 175%, the viability, T/C [29] was 248% and the viability, T/C [30] was 139%. It also gave a viability, T/C [31] of 151%, a viability, T/C [32] of 141% and a viability, T/C [33] of 183%. For the same molecule, the viability, T/C [34] was 217%, the viability, T/C [35] was 260% and the viability, T/C [36] was 161%.
